Test results from patent publication US20260262643A1, “HERBICIDAL BENZOXAZINES” (FMC CORPORATION, priority 2022, published 2026).
Where two headings read alike, the source gives them in different places.

Legend:
blackgrass [1] = assay: Test A preemergence; format: in vivo, Alopecurus myosuroides; conditions: Alopecurus myosuroides, pre-emergence, 240 h, read-out: Plant response rating, Blackgrass; for pest or weed control at 125 g/ha: 125 g ai/ha, visual injury after 10 days, 0 to 100 scale, 0 is no effect, 100 is complete control; for pest or weed control at 500 g/ha: 500 g ai/ha, 0 to 100 scale (0 no effect, 100 complete control), 10 days
Outline: (§1)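 Seeds in loam–sand blend received a directed preemergence soil spray of compound in non-phytotoxic solvent with surfactant; postemergence plants (2–10 cm, one- to two-leaf stage) were sprayed with the same formulation. After 10 days in greenhouse, injury was rated visually versus untreated controls, 0 (no effect) to 100 (complete control).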

foxtail, giant [2] = assay: Test A preemergence; format: in vivo, Setaria faberi; conditions: Setaria faberi, pre-emergence, 240 h, read-out: Plant response rating, Foxtail, Giant; for pest or weed control at 125 g/ha: 125 g ai/ha, visual injury after 10 days, 0 to 100 scale, 0 is no effect, 100 is complete control; for pest or weed control at 500 g/ha: 500 g ai/ha, 0 to 100 scale (0 no effect, 100 complete control), 10 days
Outline: as §1

goosegrass [3] = assay: Test A preemergence; format: in vivo, Eleusine indica; conditions: Eleusine indica, pre-emergence, 240 h, read-out: Plant response rating, Goosegrass; for pest or weed control at 125 g/ha: 125 g ai/ha, visual injury after 10 days, 0 to 100 scale, 0 is no effect, 100 is complete control; for pest or weed control at 500 g/ha: 500 g ai/ha, 0 to 100 scale (0 no effect, 100 complete control), 10 days
Outline: as §1

soybean = assay: Test A preemergence; format: in vivo, Glycine max; conditions: Glycine max, pre-emergence, 240 h, read-out: Plant response rating, Soybean; for plant injury at 125 g/ha: 125 g ai/ha, visual injury after 10 days, 0 to 100 scale, 0 is no effect, 100 is complete control; for plant injury at 500 g/ha: 500 g ai/ha, 0 to 100 scale (0 no effect, 100 complete control), 10 days
Outline: as §1

blackgrass [4] = assay: Test A postemergence; format: in vivo, Alopecurus myosuroides; conditions: Alopecurus myosuroides, post-emergence, 240 h, read-out: Plant response rating, Blackgrass; for pest or weed control at 125 g/ha: 125 g ai/ha, postemergence, 10 days, visual injury, 0 to 100 scale (0 no effect, 100 complete control); for pest or weed control at 500 g/ha: 500 g ai/ha, Postemergence, 0 to 100 scale
Outline: as §1

foxtail, giant [5] = assay: Test A postemergence; format: in vivo, Setaria faberi; conditions: Setaria faberi, post-emergence, 240 h, read-out: Plant response rating, Foxtail, Giant; for pest or weed control at 125 g/ha: 125 g ai/ha; for pest or weed control at 500 g/ha: 500 g ai/ha
Outline: as §1

goosegrass [6] = assay: Test A postemergence; format: in vivo, Eleusine indica; conditions: Eleusine indica, post-emergence, 240 h, read-out: Plant response rating, Goosegrass; for pest or weed control at 125 g/ha: 125 g ai/ha; for pest or weed control at 500 g/ha: 500 g ai/ha
Outline: as §1

oat, wild = assay: Test A postemergence; format: in vivo, Avena fatua; conditions: Avena fatua, post-emergence, 240 h, read-out: Plant response rating, Oat, Wild; for pest or weed control at 125 g/ha: 125 g ai/ha; for pest or weed control at 500 g/ha: 500 g ai/ha
Outline: as §1

pigweed, palmer = assay: Test A postemergence; format: in vivo, Amaranthus palmeri; conditions: Amaranthus palmeri, post-emergence, 240 h, read-out: Plant response rating, Pigweed, Palmer; for pest or weed control at 125 g/ha: 125 g ai/ha; for pest or weed control at 500 g/ha: 500 g ai/ha
Outline: as §1

ragweed = assay: Test A postemergence; format: in vivo, Ambrosia artemisiifolia; conditions: Ambrosia artemisiifolia, post-emergence, 240 h, read-out: Plant response rating, Ragweed; for pest or weed control at 125 g/ha: 125 g ai/ha; for pest or weed control at 500 g/ha: 500 g ai/ha
Outline: as §1

ryegrass, Italian = assay: Test A postemergence; format: in vivo, Lolium multiflorum; conditions: Lolium multiflorum, post-emergence, 240 h, read-out: Plant response rating, Ryegrass, Italian; for pest or weed control at 125 g/ha: 125 g ai/ha; for pest or weed control at 500 g/ha: 500 g ai/ha
Outline: as §1

wheat = assay: Test A postemergence; format: in vivo, Triticum aestivum; conditions: Triticum aestivum, post-emergence, 240 h, read-out: Plant response rating, Wheat; for plant injury at 125 g/ha: 125 g ai/ha; for plant injury at 500 g/ha: 500 g ai/ha
Outline: as §1

galium = assay: Test A postemergence; format: in vivo, Galium aparine; conditions: Galium, post-emergence, 240 h, read-out: Plant response rating, Galium; for pest or weed control at 125 g/ha: 125 g ai/ha; for pest or weed control at 500 g/ha: 500 g ai/ha
Outline: as §1

sedge, umbrella = assay: Test B flooded paddy test; format: in vivo, Cyperus difformis; conditions: Cyperus difformis, 312 h; 250 g ai/ha, Flood, 13 days, 0 to 100 scale (0 no effect, 100 complete control); read-out: Plant response rating, Sedge, Umbrella
Outline: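 Plants at the 2-leaf stage were flooded to 3 cm above the soil, and test compounds were applied directly into the paddy water, with that depth held throughout. After 13 days in a greenhouse, injury was rated visually against untreated controls on a 0–100 scale (100 = complete control).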

[7] = postemergence, 10 days, visual injury, 0 to 100 scale (0 no effect, 100 complete control)

Row | SMILES | pest or weed control at 125 g/ha (blackgrass [1]) [%] | pest or weed control at 500 g/ha (blackgrass [1]) [%] | pest or weed control at 125 g/ha (foxtail, giant [2]) [%] | pest or weed control at 500 g/ha (foxtail, giant [2]) [%] | pest or weed control at 125 g/ha (goosegrass [3]) [%] | pest or weed control at 500 g/ha (goosegrass [3]) [%] | plant injury at 125 g/ha (soybean) [%] | plant injury at 500 g/ha (soybean) [%] | pest or weed control at 125 g/ha (blackgrass [4]) [%] | pest or weed control at 500 g/ha (blackgrass [4]) [%] | pest or weed control at 125 g/ha (foxtail, giant [5]; [7]) [%] | pest or weed control at 500 g/ha (foxtail, giant [5]; Postemergence, 0 to 100 scale) [%] | pest or weed control at 125 g/ha (goosegrass [6]; [7]) [%] | pest or weed control at 500 g/ha (goosegrass [6]; Postemergence, 0 to 100 scale) [%] | pest or weed control at 125 g/ha (oat, wild; [7]) [%] | pest or weed control at 500 g/ha (oat, wild; Postemergence, 0 to 100 scale) [%] | pest or weed control at 125 g/ha (pigweed, palmer; [7]) [%] | pest or weed control at 500 g/ha (pigweed, palmer; Postemergence, 0 to 100 scale) [%] | pest or weed control at 125 g/ha (galium; [7]) [%] | pest or weed control at 250 g/ha (sedge, umbrella) [%] | also measured
1 | C#Cc1ncn(-c2cccc(C(=O)N3C[C@H](C)Oc4c(C)cccc43)c2)n1 [Compound 64, [(2S)-2,3-Dihydro-2,8-dimethyl-4H-1,4-benzoxazin-4-yl][3-(3-ethynyl-1H-1,2,4-triazol-1-yl)phenyl]methanone] | 80 | 90 | 90 | 100 | 60 | 100 | 20 | 30 | 40 | 70 | 20 | 90 | 10 | 30 | 50 | 70 | 30 | 50 | 90 | 75 | pest or weed control at 125 g/ha (ragweed; [7]): 0%; pest or weed control at 500 g/ha (ragweed; Postemergence, 0 to 100 scale): 40%; pest or weed control at 125 g/ha (ryegrass, Italian; [7]): 40%; pest or weed control at 500 g/ha (ryegrass, Italian; Postemergence, 0 to 100 scale): 100%; plant injury at 125 g/ha (wheat; [7]): 10%; plant injury at 500 g/ha (wheat; Postemergence, 0 to 100 scale): 40%; pest or weed control at 500 g/ha (galium; Postemergence, 0 to 100 scale): 100%
2 | COc1ccc(-n2cncn2)cc1C(=O)N1C[C@H](C)Oc2c(C)cccc21 [Compound 63, [(2S)-2,3-Dihydro-2,8-dimethyl-4H-1,4-benzoxazin-4-yl][2-methoxy-5-(1H-1,2,4-triazol-1-yl)phenyl]methanone] | 80 | 90 | 100 | 100 | 100 | 100 | 100 | 100 | 70 | 90 | 90 | 90 | 70 | 80 | 70 | 80 | 30 | 40 | 100 | 98 | pest or weed control at 125 g/ha (ragweed; [7]): 40%; pest or weed control at 500 g/ha (ragweed; Postemergence, 0 to 100 scale): 40%; pest or weed control at 125 g/ha (ryegrass, Italian; [7]): 80%; pest or weed control at 500 g/ha (ryegrass, Italian; Postemergence, 0 to 100 scale): 100%; plant injury at 125 g/ha (wheat; [7]): 70%; plant injury at 500 g/ha (wheat; Postemergence, 0 to 100 scale): 90%; pest or weed control at 500 g/ha (galium; Postemergence, 0 to 100 scale): 100%
3 | Cc1ncn(-c2ccc(C)c(C(=O)N3C[C@H](C)Oc4c(Cl)cccc43)c2)n1 (single isomer, unassigned) [Compound 74] | 70 | 90 | 100 | 100 | 100 | 100 | 70 | 100 | 70 | 90 | 90 |  | 0 |  |  |  |  |  | 100 | 95 | pest or weed control at 500 g/ha (foxtail, giant [5]; [7]): 90%; pest or weed control at 500 g/ha (goosegrass [6]; [7]): 0%; pest or weed control at 500 g/ha (oat, wild; [7]): 60%; pest or weed control at 500 g/ha (pigweed, palmer; [7]): 70%; pest or weed control at 500 g/ha (ragweed; [7]): 50%; pest or weed control at 500 g/ha (ryegrass, Italian; [7]): 100%; plant injury at 500 g/ha (wheat; [7]): 80%; pest or weed control at 500 g/ha (galium; [7]): 100%
